Laboratory results as given in patent publication US12410178B2, “Small cationic ortho-5,15-di-heteroaryl-porphyrin derivatives and their applications in photoinactivation of microorganisms” (UNIVERSIDADE DE COIMBRA, priority 2019, dated 2025).

How the values were obtained:
[1] = Optical absorption, molar absorption coefficient; assay type: physicochemical; settings: water with 9% dimethylsulfoxide
Method: Optical Absorption: The ultra-violet visible optical absorption (UV-vis) spectra used in the control of the synthesis were recorded on Hitachi U-2001 or Shimadzu 2100 spectrophotometers using spectroscopic grade solvents. The UV-Vis-NIR optical absorption was recorded with an Agilent Cary5000 UV-Vis-NIR Spectrophotometer in the determination of the molar absorption coefficient and with Shimadzu UV-2100 spectrometer in routine measurements. The absorption spectra were recorded in the wavelengths from 300 nm up to 800 nm. Molar absorption coefficients were determined by using Beer-Lambert's law. For each compound, a minimum of 6 solutions were prepared in concentrations ranging from 10^−7 to 10^−6 M, giving absorbance values between 0.1 and 1.
The absorptivities of the compounds and other photophysical and photobiological properties were measured as described in the Materials and Methods. […] This is indicative of negligible aggregation between the molecules, which exist mostly as monomers at the studied concentrations in the selected solvents. […] The same table also presents the fluorescence quantum yield (ΦF), singlet oxygen generation (ΦΔ) and the logarithm of the n-octanol:water partition coefficient (log POW). […]

[2] = Photobleaching / photodecomposition experiments; assay type: physicochemical
Method: Photobleaching experiments: Photodecomposition experiments were made dissolving the photosensitizers in water with 9% dimethylsulfoxide. A volume of 3 mL was placed in a cuvette and irradiated ensuring that all the light hits the solution. The porphyrins were irradiated using a LED light with emission at 415 nm and an effective output power of 0.27 mW. Photodecomposition quantum yield (Φpd) is defined as the ratio between the rate of disappearance of photosensitizer molecules vd and the rate of absorption of photons vp.
The intensity of its longest wavelength absorption band at 622 nm decreased by less than ΔA=0.001 after 15,000 second of illumination corresponding to an effective absorption of ca. 4 J. This places an upper limit of 0.001 to the photodecomposition quantum yield.

[3] = Singlet oxygen quantum yield; assay type: physicochemical; settings: excitation 355 nm, reference phenalenone
Source text: Singlet Oxygen Quantum Yield: The experiments were run at room temperature. The solutions were excited at 355 nm using a Nd-YAG laser (Spectra-Physics Quanta-Ray GRC-130) and the phosphorescence of singlet oxygen collected at 1270 nm in a Hamamatsu R5509-42 photomultiplier, cooled to 193 K in a liquid nitrogen chamber, after selection of the wavelength with a monochromator with 600 lines grading. A Newport filter model 10LWF-1000-B was used in the emission to avoid scattering and fluorescence. Phenalenone was used as a reference of singlet oxygen generator, ΦΔ^Ref=0.98. Extrapolating to time-zero the decays of the singlet molecular oxygen emissions measured for sample and the reference solutions at a given laser intensity, we obtained a relation between emission intensities as a function of laser intensity, that is identical to the relation between the singlet molecular oxygen quantum yields. The singlet oxygen quantum yields were obtained by comparing the linear dependence between and the energy of the laser pulse for both the sample and the reference for the same absorption of sample and reference at the excitation wavelength, taking into account the singlet oxygen quantum yield of phenalenone.

[4] = tested on: HDFn neonatal human dermal fibroblast; test: Toxicity and phototoxicity towards human cell lines (MTT); assay type: cell-based
Method: (§1) Toxicity towards human cell lines was evaluated in vitro using the 3-(4,5-dimethylthiazol-2-yl)2,5-diphenyl tetrazolium bromide (MTT, from Sigma Aldrich) assay to estimate the viability of cells after appropriate treatment. After cell attachment, photosensitizer solutions in PBS at concentrations between 0 to 10 μM were added to the cell cultures and incubated for 1 h at 37° C. in the dark. After illumination with the Biotable® or after the equivalent time in control experiments, MTT dissolved at 5 mg/ml in PBS was added to each well (final concentration 0.5 mg/ml), and the microplates were further incubated for 3-4 hours. Medium were then discarded and 100 μl of methanol were added to the cultures and mixed thoroughly to dissolve the dark blue crystals of formazan. Formazan quantification was performed using an automatic microplate reader (Multiskan Go Thermo) by absorbance measurements at 570 nm. Each experiment was repeated three times. Data were expressed as mean absorbance value of six samples and standard error of the mean.
(§2) This example describes the evaluation of in vitro toxicity against HDFn neonatal human dermal fibroblast and HaCaT immortalized human keratinocyte cell lines of a cationic ortho-5,15-di-heteroaryl porphyrin with Formula (IIa). Both types of cells were grown in DMEM (BioTech) with addition of 10% fetal bovine serum (Cultilab—Campinas, SP, Brazil). Before the experiments, the cells were removed by trypsinization, washed with PBS and maintained in a humidified atmosphere at 37° C. and 5% CO2. The cells were incubated in the dark with the photosensitizer of Formula (IIa) in PBS for 30 min at concentrations up to 10 μM, and then illuminated with the Biotable® to deliver 5 J/cm^2 in the wavelength range between 400-700 nm. After exposure to light, the cells were washed with fresh medium and plates were returned to the incubator for 24 h. Cell viability was determined by a MTT assay performed 24 h after irradiation. The cells in the control experiment remained in the dark for the time of the illumination. […] Exposure to a light dose of 5 J/cm^2 led only to a 20% decrease in the viability of fibroblasts at the highest drug dose tested: 10 μM.

[5] = tested on: HaCaT immortalized human keratinocyte; test: as above; assay type: cell-based
Method: as §1, §2

[6] = Fluorescence quantum yield; assay type: physicochemical; settings: standard TPP in toluene
Method: Fluorescence Emission: The fluorescence emission spectra were recorded in a Horiba Scientific Spectrofluorometer Fluoromax-4. The spectra were collected from 550 nm up to 800 nm using standard cuvettes of 1 cm of optical path. Fluorescence quantum yields (ΦF) were obtained comparing the area of integrated fluorescence of the samples with that of a reference fluorimetric compound with known ΦF, corrected by the absorption of sample and reference at the excitation wavelength and by the refractive indices of the solvents used for the standard and reference solution. Tetraphenylporphyrin (TPP) in toluene (ΦF=0.11) was used as standard. The absorbance of the solutions at the excitation wavelength was 0.01.

For Cn1cc[n+](C)c1C1=C2C=CC3=[N+]2[Zn@]24[n]5c(ccc51)C=C1C=CC(=[N+]12)C(c1n(C)cc[n+]1C)=c1ccc([n]14)=C3 [Formula (IIa), 5,15-bis(1,3-dimethylimidazol-2-yl)porphyrinate zinc (II) diiodide], the “ε(λ)/10^3 molar absorption coefficient” value ([1]; at 407 nm) was >20 10^3 M^−1 cm^−1, the “λ (most intense absorption band)” value [1] was 407 nm and the photodecomposition quantum yield ([2]; LED 415 nm, water with 9% dimethylsulfoxide) was no more than 0.001. For the same molecule, the “decrease ΔA of longest wavelength absorption band at 622 nm” value ([2]; after 15,000 second of illumination, effective absorption ca. 4 J) was less than 0.001, the “ΦΔ singlet oxygen generation quantum yield” value [3] was 0.75 and the “Dark cytotoxicity, cell viability” value ([4]; 10 μM, in the dark) was “did not show a statistically significant reduction of cell viability”. The “decrease in the viability” value ([4]; 10 μM, light dose 5 J/cm^2) was 20%, the “Survival fraction at 10 μM, Fibroblast” value ([4]; light dose 5 J/cm^2) was 100% and the “Dark cytotoxicity, cell viability” value ([5]; 10 μM, in the dark) was “did not show a statistically significant reduction of cell viability”. The “Survival fraction at 10 μM, Keratinocytes” value ([5]; light dose 5 J/cm^2) was 80% and the “ΦF fluorescence quantum yield” value [6] was 0.10.
